Strand notation (5' to 3'): a small letter for the sugar, then the base; units joined by * are phosphorothioate-linked, units joined directly phosphodiester-linked; [ ] holds rarer units or linkages, { } end groups; capitals alone tell only the bases. k = constrained ethyl (cEt); [5mC] = 5-methylcytosine; d = 2'-deoxy (DNA)
test system: human SMAD7 mRNA; assay: Antisense inhibition of human SMAD7 mRNA expression in Hep3B cells by 3-10-3 cEt gapmers, 10,000 nM, electroporation (Example 2); type: cell-based; conditions: Hep3B cells, 10,000 nM antisense oligonucleotide, electroporation, approximately 24 hours, RT-PCR primer probe set RTS5062, relative to untreated control cells
Method in brief: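 Percent inhibition of SMAD7 mRNA, relative to untreated cells, after ~24 h exposure of electroporated Hep3B cells to 10,000 nM cEt gapmer; levels by qRT-PCR, corrected for total RNA.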

| Substance | % Inhibition [%] |
| --- | --- |
| 800054 (antisense kG*k[5mC]*kT*dA*d[5mC]*dA*d[5mC]*d[5mC]*dA*dA*dA*dG*dA*k[5mC]*k[5mC]*kT) [compound 800054] | 62 |
| 799839 (antisense kA*kG*k[5mC]*dA*d[5mC]*dA*dA*dT*dA*dT*dG*dA*dA*kT*kG*kT) [compound 799839] | 36 |
| 799877 (kA*k[5mC]*kT*dT*dT*dA*d[5mC]*dA*dA*d[5mC]*d[5mC]*d[5mC]*dA*kA*kT*kA; antisense) [compound 799877] | 52 |
| 799939 (antisense kG*k[5mC]*kA*dT*dT*dT*dA*dA*dT*dT*dT*dG*d[5mC]*kA*kA*k[5mC]) [compound 799939] | 38 |
| 800075 (antisense kT*kA*kA*dT*dT*dT*dT*d[5mC]*d[5mC]*dT*d[5mC]*dA*dA*k[5mC]*kA*kG) [compound 800075] | 55 |

same assay, conditions: Hep3B cells, electroporation with 10,000 nM antisense oligonucleotide, approximately 24 hours, RTS5062, percent inhibition of SMAD7 mRNA relative to untreated control cells

| Substance | % Inhibition [%] |
| --- | --- |
| 799849 (kA*kT*kA*dA*dG*d[5mC]*d[5mC]*dG*dA*dT*d[5mC]*dA*d[5mC]*kA*kA*kA; antisense) [compound 799849] | 41 |

same assay, conditions: Hep3B cells, electroporation with 10,000 nM antisense oligonucleotide, approximately 24 hours, SMAD7 mRNA by RT-PCR (RTS5062), relative to untreated control cells

| Substance | % Inhibition [%] |
| --- | --- |
| 830145 (antisense kT*kG*kG*dG*dT*dG*dT*dG*d[5mC]*dA*d[5mC]*d[5mC]*dA*kG*kG*kT) [compound 830145] | 47 |
| 799902 (antisense kG*kG*kA*dA*dG*dA*d[5mC]*dA*d[5mC]*dA*dA*dG*dG*kG*k[5mC]*kT) [compound 799902] | 34 |
| 800065 (antisense kT*kT*kA*dA*dG*dT*dA*dG*d[5mC]*dA*dG*d[5mC]*d[5mC]*kA*kG*kT) [compound 800065] | 55 |
| 800041 (kG*k[5mC]*k[5mC]*dA*d[5mC]*d[5mC]*dT*dA*dG*dG*d[5mC]*dA*dA*kG*kG*kG; antisense) [compound 800041] | 0 |
| 830050 (kA*kG*kT*dT*dT*d[5mC]*d[5mC]*dG*dA*dT*dT*dG*dG*k[5mC]*kA*kG; antisense) [compound 830050] | 39 |
| 830105 (kT*kT*kA*dA*dG*d[5mC]*d[5mC]*d[5mC]*dG*d[5mC]*dT*d[5mC]*dT*k[5mC]*kA*kG; antisense) [compound 830105] | 48 |
| 830093 (k[5mC]*kT*k[5mC]*dA*dT*dT*dA*dG*dT*d[5mC]*d[5mC]*d[5mC]*dA*kT*kG*kA; antisense) [compound 830093] | 5 |
| 800007 (k[5mC]*kT*k[5mC]*dA*dA*dG*dG*d[5mC]*d[5mC]*dA*d[5mC]*dA*dT*kT*kT*kT; antisense) [compound 800007] | 23 |
| 830031 (antisense kT*kA*k[5mC]*d[5mC]*dT*dA*dA*dT*dG*dT*d[5mC]*dA*dA*k[5mC]*kA*k[5mC]) [compound 830031] | 44 |
| 799469 (antisense k[5mC]*kT*k[5mC]*d[5mC]*dG*d[5mC]*dA*dT*dA*dG*dA*d[5mC]*dA*kG*kA*kT) [compound 799469] | 69 |
| 800064 (antisense kA*kT*kG*dG*dA*dG*dG*dT*dG*d[5mC]*d[5mC]*d[5mC]*dG*kT*k[5mC]*kA) [compound 800064] | 0 |
| 800099 (antisense kT*kG*k[5mC]*dA*dA*dA*dG*dG*dG*dA*d[5mC]*d[5mC]*d[5mC]*kT*kT*kA) [compound 800099] | 6 |
| 799470 (antisense kA*kA*kA*dA*dG*d[5mC]*dT*d[5mC]*d[5mC]*dG*d[5mC]*dA*dT*kA*kG*kA) [compound 799470] | 10 |
| 799489 (antisense kT*k[5mC]*kT*dA*dA*dA*d[5mC]*d[5mC]*dA*dT*dT*dT*dT*kG*kA*kT) [compound 799489] | 0 |
| 790460 (kA*kG*kG*dA*dG*d[5mC]*dG*dG*d[5mC]*dG*dG*d[5mC]*dG*kG*k[5mC]*k[5mC]; antisense) [compound 790460] | 58 |
| 799252 (antisense k[5mC]*kA*kA*dA*dG*dG*dT*dG*d[5mC]*dG*d[5mC]*dG*dG*k[5mC]*k[5mC]*kA) [compound 799252] | 41 |
| 798698 (antisense kA*kG*k[5mC]*dT*d[5mC]*dG*d[5mC]*d[5mC]*dT*d[5mC]*d[5mC]*dT*d[5mC]*k[5mC]*kT*k[5mC]) [compound 798698] | 57 |
| 830174 (antisense kG*kA*kG*dA*dG*dG*dT*dG*dT*dT*dT*d[5mC]*d[5mC]*kA*kA*kG) [compound 830174] | 49 |

same assay, conditions: Hep3B cells, electroporation with 10,000 nM antisense oligonucleotide, approximately 24 hours, primer probe set RTS5062, relative to untreated control cells

| Substance | % Inhibition [%] | % inhibition of SMAD7 mRNA expression [%] |
| --- | --- | --- |
| 799142 (antisense kG*kG*kG*dT*dT*dA*dT*dG*dA*d[5mC]*dG*dG*dA*k[5mC]*k[5mC]*kA) [compound 799142] | 38 |  |
| 798992 (antisense kA*k[5mC]*kT*d[5mC]*d[5mC]*dT*dG*dA*d[5mC]*dA*dA*dG*dT*kG*kA*kA) [compound 798992] |  | 29 |
| 799016 (k[5mC]*kA*kA*dA*d[5mC]*d[5mC]*dT*d[5mC]*dT*d[5mC]*dT*dG*d[5mC]*kT*kG*kG; antisense) [compound 799016] | 30 |  |
| 798924 (kA*kG*kT*dT*dT*dG*dA*dA*dG*dT*dG*dT*dG*kG*k[5mC]*k[5mC]; antisense) [compound 798924] | 43 |  |
| 799379 (antisense kT*kT*kT*dG*dA*dT*dA*dG*dT*d[5mC]*d[5mC]*d[5mC]*dT*kA*kT*kG) [compound 799379] |  | 0 |
| 799074 (antisense k[5mC]*kA*kA*dA*dA*dA*dA*dG*dA*dA*dA*dG*dA*k[5mC]*kG*k[5mC]) [compound 799074] | 9 |  |
| 799460 (antisense k[5mC]*kA*kA*d[5mC]*dA*dG*dA*dG*dT*d[5mC]*dT*dT*dT*kG*kA*kA) [compound 799460] |  | 29 |
| 799022 (kG*kG*kG*dA*d[5mC]*dT*dG*d[5mC]*dA*dA*dA*d[5mC]*d[5mC]*kT*k[5mC]*kT; antisense) [compound 799022] | 61 |  |
| 799459 (antisense kA*k[5mC]*kA*dG*dA*dG*dT*d[5mC]*dT*dT*dT*dG*dA*kA*kA*kA) [compound 799459] |  | 0 |

same assay, conditions: Hep3B cells, electroporation, 10,000 nM antisense oligonucleotide, approximately 24 hours, RTS5062, relative to untreated control cells

| Substance | % inhibition of SMAD7 mRNA expression [%] |
| --- | --- |
| 799558 (k[5mC]*kT*kT*d[5mC]*dT*dA*dT*dT*d[5mC]*dG*dA*dG*d[5mC]*kT*kG*k[5mC]; antisense) [compound 799558] | 47 |
| 799779 (kT*kA*kA*dA*d[5mC]*dA*dA*dA*d[5mC]*d[5mC]*dA*d[5mC]*dA*kG*kG*kG; antisense) [compound 799779] | 19 |
| 799792 (kA*k[5mC]*k[5mC]*dA*dA*dA*dA*d[5mC]*d[5mC]*d[5mC]*dG*dG*dG*kA*kG*kA; antisense) [compound 799792] | 31 |
| 799594 (kT*kG*kA*dA*d[5mC]*dG*dG*dA*dA*dA*dG*dA*dA*kG*kA*kA; antisense) [compound 799594] | 35 |
| 799757 (antisense k[5mC]*k[5mC]*kG*dT*dT*dA*d[5mC]*dT*dG*dG*dA*d[5mC]*dA*k[5mC]*kA*kG) [compound 799757] | 41 |
| 799280 (antisense kA*kG*k[5mC]*dA*d[5mC]*d[5mC]*dT*dT*dG*dT*d[5mC]*dA*d[5mC]*k[5mC]*k[5mC]*kG) [compound 799280] | 44 |
| 799659 (antisense kA*kA*kA*dT*dA*dA*d[5mC]*dT*dA*d[5mC]*dA*dA*dG*kT*kG*kG) [compound 799659] | 57 |
| 799541 (kT*kT*kA*dA*dT*dG*dA*d[5mC]*dA*d[5mC]*d[5mC]*dA*dA*kA*kG*kT; antisense) [compound 799541] | 55 |

same assay, conditions: SMAD7 mRNA, Hep3B cells, 10,000 nM antisense oligonucleotide, electroporation, approximately 24 hours, primer probe set RTS5062, relative to untreated control cells

| Substance | % Inhibition [%] |
| --- | --- |
| 790508 (k[5mC]*kA*k[5mC]*d[5mC]*dA*d[5mC]*dG*d[5mC]*dA*d[5mC]*d[5mC]*dA*dG*kT*kG*kT; antisense) [compound 790508] | 0 |
| 829758 (antisense k[5mC]*kA*k[5mC]*d[5mC]*dG*dG*d[5mC]*d[5mC]*d[5mC]*d[5mC]*dA*dT*dG*k[5mC]*kG*k[5mC]) [compound 829758] | 24 |
| 790471 (k[5mC]*kG*k[5mC]*d[5mC]*dG*dG*dG*d[5mC]*dG*d[5mC]*dA*d[5mC]*dG*kG*k[5mC]*kT; antisense) [compound 790471] | 4 |
| 829715 (antisense kT*k[5mC]*kT*d[5mC]*d[5mC]*d[5mC]*dG*dG*dA*dG*dG*d[5mC]*d[5mC]*kG*kG*kG) [compound 829715] | 40 |

same assay, conditions: SMAD7 mRNA, Hep3B cells, electroporation with 10,000 nM antisense oligonucleotide, approximately 24 hours, primer probe set RTS5062, relative to untreated control cells

| Substance | % Inhibition [%] |
| --- | --- |
| 829967 (k[5mC]*k[5mC]*k[5mC]*d[5mC]*d[5mC]*dA*dG*dG*dG*dA*dA*dT*dG*k[5mC]*k[5mC]*k[5mC]; antisense) [compound 829967] | 0 |
| 829954 (kT*kT*kG*dT*d[5mC]*dA*d[5mC]*d[5mC]*d[5mC]*dG*dT*d[5mC]*dT*kG*kG*kG; antisense) [compound 829954] | 53 |
| 829880 (antisense kT*k[5mC]*k[5mC]*dT*dG*dG*dA*dG*dT*d[5mC]*d[5mC]*dG*dG*kG*kT*kT) [compound 829880] | 32 |
| 829936 (k[5mC]*kA*kG*d[5mC]*dT*dA*dG*dG*dT*dG*dA*dT*dA*kA*k[5mC]*kA; antisense) [compound 829936] | 14 |
| 829807 (kA*kG*kA*d[5mC]*dT*d[5mC]*dT*dA*dG*dT*dT*d[5mC]*dG*k[5mC]*kA*kG; antisense) [compound 829807] | 41 |
